Assay results reported in patent US7507335B2, “Dendrimer fluid purification agent and article” (KWG Technology, priority 2003, dated 2009).
Read-outs that look alike come from different tables or passages of the source.

Columns and labels:
Pseudomonas aerugentoas = assay: Paper disc zone of inhibition test (Example Two); assay type: cell-based; settings: 6-millimeter disc, 10 microliters, 24 hours
Experimental: (§1) A second sample of a dendrimer silver complex was tested against various concentrations of silver nitrate against both E. coli and Pseudomonas aerugentoas. The experiment was performed as follows: • 1. Prepare an inoculum of the test organisms by streaking the entire surface of agar plates, by the standard method for colony isolation, with ether E. coli or pseudomonas aerugentoas. The plates were incubated at 370 C for approximately 18 hours. • 2. Harvest all the growth on the test organism plates by flooding the plats with 9.0 ml of sterile distilled water per plate. Wash the harvested biomass by centrifugation for 1 hour at 3000 rpm, discarding the supernatant fluid, and resuspending in 9.0 ml of sterile distilled water. Resuspend harvested cell by vortex agitation for 1 minute. • 3. Inoculate test plates with 0.2 ml with the test organism prepare as described above. • 4. Place sterile 6-millimeter blank paper Discs on test plates and saturate with 10 microliters of the test substances. • 5. […]

E. coli = assay type: cell-based; settings: 6-millimeter disc, 10 microliters, 24 hours
Experimental: as §1

SMILES: O=[N+]([O-])[O-].[Ag+] [Silver Nitrate]
- Pseudomonas (diameter of inhibitory zone) (Pseudomonas aerugentoas; 0.5% Silver Nitrate): 12 millimeters
- Pseudomonas (diameter of inhibitory zone) (Pseudomonas aerugentoas; 1.0% Silver Nitrate): 9 millimeters
- Pseudomonas (diameter of inhibitory zone) (Pseudomonas aerugentoas; 2.5% Silver Nitrate): 6 millimeters
- Pseudomonas (diameter of inhibitory zone) (Pseudomonas aerugentoas; 5.0% Silver Nitrate): 6 millimeters
- Pseudomonas (diameter of inhibitory zone) (Pseudomonas aerugentoas; 7.5% Silver Nitrate): 7 millimeters
- Pseudomonas (diameter of inhibitory zone) (Pseudomonas aerugentoas; 10.0% Silver Nitrate): 11 millimeters
- E. Coli (diameter of inhibitory zone) (E. coli; 0.5% Silver Nitrate): 6 millimeters
- E. Coli (diameter of inhibitory zone) (E. coli; 1.0% Silver Nitrate): 6 millimeters
- E. Coli (diameter of inhibitory zone) (E. coli; 2.5% Silver Nitrate): 6 millimeters
- E. Coli (diameter of inhibitory zone) (E. coli; 5.0% Silver Nitrate): 6 millimeters
- E. Coli (diameter of inhibitory zone) (E. coli; 7.5% Silver Nitrate): 6 millimeters
- E. Coli (diameter of inhibitory zone) (E. coli; 10.0% Silver Nitrate): 6 millimeters
